System: HEK293 cell lysates
Experiment: KAYAK in vitro kinase assay, individual reactions, lysates of starved, insulin- or EGF-stimulated HEK293 cells
Type: biochemical, human
Procedure: For stimulation of HEK293 cells or HeLa lines, cells were treated with insulin (100 nM; 10-30 min) EGF (50 ng/ml; 10 min) or phorbol 12-myristate 13-acetate (PMA; 50 or 100 ng/ml; 10 -30 min) at 37° C. for the indicated times after overnight serum-starvation.
For cell lysis, the media were removed, and cells were washed with ice-cold phosphate-buffered saline (PBS) and lysed with ice-cold lysis buffer (10 mM K2HPO4 pH 7.5, 1 mM EDTA, 10 mM MgCl2, 50 mM β-glycerophosphate, 5 mM EGTA, 0.5% Nonidet P-40, 0.1% Brij 35, 0.1% deoxycholic acid, 1mM sodium orthovanadate, 1mM phenylmethyl-sulfonyl fluoride, 5 μg/ml leupeptin and 5 μg/ml pepstatin A). Lysates were centrifuged at 10,000 rpm for 10 min to remove cell debris, and clear supernatant was used for immunoblotting and in vitro kinase assays. Protein concentration was determined by Bradford assay (Biorad, Hercules, Calif.).
Peptides were synthesized, purified and quantified as described in Yu et al. 2009 Proc Natl Acad Sci USA 106: 11606-11611, hereby incorporated by reference herein in its entirety. Each substrate peptide (250 pmol) was mixed to a final concentration of 5 μM in the 50 μL reaction mixture. Alternatively, reactions were performed using 6 μg cell lysate aliquotes mixed to a final volume of 20 μl. Cell lysate or other kinase source was added to the substrate mixture in 25 mM Tris-Cl, pH 7.5, containing 5 mM ATP, 7.5 mM MgCl2, 0.2 mM EGTA, 7.5 mM β-glycerophosphate, 0.1 mM Na3VO4, and 0.1 mM DTT. The reaction was incubated at 25° C. for 60 min and then terminated by the addition of 100 μl of 1% trifluoroacetic acid (TFA) containing a known amount of an internal standard (typically 20 pmol). Alternatively, the reaction was incubated at 20° C. for 45 min before termination with TFA.
Forty-five individual in vitro kinase reaction mixtures were combined and desalted by using Sep-Pak C18 cartridge (Waters, Milford, Mass.). Phosphopeptides were enriched by immobilized metal ion chromatography (IMAC) with 20 μl of beads (Phos-Select iron affinity gel; Sigma, St. Louis, Mo.) and subsequently desalted by using Empore C18 solid phase extraction disks (3M, St. Paul, Minn.) as described previously.
Quantitation of the target peptide-internal standard ratios was performed by first constructing the extracted ion chromatogram for the most abundant charge state for each peptide using a ±10 ppm window. Chromatograms were integrated using Qual/Quan browser (Xcalibur 2.0.5, Thermo Fisher, San Jose, Calif.). Since the phosphorylated peptides generated from the in vitro kinase reactions were chemically identical to the internal standards, they were assumed to have the same ionization efficiency. Therefore, the amount of each phosphorylated peptide was calculated by direct ratio to the internal standard level.
To test substrate suitability in a multiplexed assay, the phosphorylation activities were measured using […] of each substrate peptide, 6 μg lysate, and 5 mM ATP in a plate format. Reactions proceeded for 60 minutes followed by acidification and the addition of isotope-labeled reference peptides. After pooling 45 samples, phosphopeptide enrichment was followed by liquid-chromatography (LC) separation and on-line peptide detection by high-resolution mass spectrometry.
The ability of the peptides to report specific changes in kinase activation after pathway stimulation was examined herein. Lysates from HEK293 cells were collected after insulin or EGF treatment and were compared to their activities in the serum-starved state using the KAYAK approach. Western blot analysis of lysates from cells in which the PI3K and MAPK pathways were activated, as indicated by elevated phospho-Akt and phospho-ERK1/2 levels, respectively, is shown in FIG. 1D. […]

## RIRTQSFSLQPFR (The sequence was designed and synthesized) [F6]
EGF-stimulated compared to starved HEK293 cells
  E: changed phosphorylation in EGF stimulated condition: ++ (A change of more than +4 and −4 fold is indicated by “++” and “−−”, respectively.)
insulin-stimulated compared to starved HEK293 cells
  I: changed phosphorylation in insulin stimulated condition: + (A change of more +2 fold and −2 fold is indicated by “+” and “−”, respectively.)
